Measurements reported in ChEMBL document CHEMBL3392960, “Discovery of thienoimidazole-based HCV NS5A inhibitors. Part 1: C2-symmetric inhibitors with diyne and biphenyl linkers” (Bioorg Med Chem Lett, 2015).

Columns and labels:
[1] = Clearance in iv dosed Sprague-Dawley rat; format: ADME, organism-based; conditions: in vivo
[2] = Volume of distribution at steady state in iv dosed Sprague-Dawley rat; format: ADME, organism-based; conditions: in vivo, read-out: Vdss
[3] = system: Hepatitis C virus; experiment: Antiviral activity against Hepatitis C virus genotype 1a infected in W11.8 cells assessed as decrease in NS5A expression in replicon cell after 4 days by luminescence based ELISA; format: functional, Hepacivirus hominis; conditions: subtype 1a, W11.8, 96 h
[4] = Cytotoxicity against human HuhET cells by [3H]thymidine incorporation assay; format: cell-based
[5] = Half life in iv dosed Sprague-Dawley rat; format: ADME, organism-based; conditions: in vivo
[6] = system: Hepatitis C virus; experiment: Antiviral activity against Hepatitis C virus genotype 1b infected in human Huh-5.2 cells assessed as decrease in HCV replicon RNA replication after 4 days by luciferase assay; format: functional, cell-based, Hepacivirus hominis; conditions: Huh-5-2, 96 h

| clearance [1] [mL/min/kg] | Vd [2] [L/kg] | EC50 [3] [nM] | half-life [5] [h] | EC50 [6] [nM] | Compound | CC50 [4] [nM] |
| --- | --- | --- | --- | --- | --- | --- |
| 8.2 | 3.3 | 281 | 5.2 | 0.386 | COC(=O)N[C@H](C(=O)N1CCC[C@H]1c1nc2sc(C#CC#Cc3cc4[nH]c([C@@H]5CCCN5C(=O)[C@@H](NC(=O)OC)C(C)C)nc4s3)cc2[nH]1)C(C)C | 6100 |
| 8 | 2.2 | 6 | 4.5 | 0.006 | COC(=O)N[C@H](C(=O)N1C[C@@H](C)C[C@H]1c1nc2sc(-c3ccc(-c4ccc(-c5cc6[nH]c([C@@H]7C[C@H](C)CN7C(=O)[C@@H](NC(=O)OC)C(C)C)nc6s5)cc4)cc3)cc2[nH]1)C(C)C | > 20000 |
| – | – | 184 | – | 0.17 | COC(=O)N[C@H](C(=O)N1C[C@@H](C)C[C@H]1c1nc2sc(C#CC#Cc3cc4[nH]c([C@@H]5C[C@H](C)CN5C(=O)[C@@H](NC(=O)OC)C(C)C)nc4s3)cc2[nH]1)C(C)C | > 20000 |
